pIC50: −log10 of the molar value. Converted amounts (≈) assume the structure as drawn.
What follows are compounds tested on S. aureus UAMS-1 (assay: Minimum inhibitory concentration (MIC) testing). Details: S. aureus UAMS-1, 16 h in MHB; listed as ST016037.
Type: cell-based, Staphylococcus aureus
Protocol: Minimum inhibitory concentration (MIC) testing was performed using to Clinical & Laboratory Standards Institute (CLSI) guidelines. Accordingly, individual wells of a 96-well microtiter plate were inoculated with 10^4 colony forming units (CFU) of S. aureus UAMS-1 containing two-fold increasing concentrations (0 to 256 μg·mL^−1) of the indicated antibiotic or putative RnpA inhibitor compound, and incubated at 37 °C for 16 h in MHB. The MIC was defined as the lowest concentration of compound in which there was no visible bacterial growth in the well.

| Structure (SMILES) | MIC [µg/mL] |
| --- | --- |
| O=C(Nc1ccc(Cl)cc1)c1c(NC(=O)C(F)(F)F)sc2c1CCCCC2 [JR1] | 0.5 (≈ 1.2 µM) |

Same assay, conditions: Staphylococcus aureus, UAMS1, 16 h, S. aureus UAMS-1, 16 h in MHB; read-out: MIC

| Structure (SMILES) | MIC [µg/mL] |
| --- | --- |
| CC1CCCCN1C(=O)Nc1ccccc1 (centres unmarked) [JC2b] | > 256 |
| O=C(Nc1ccc(Cl)cc1)c1c(NC(=O)C(F)(F)F)sc2c1CCCCC2 [JR1] | 0.25 to 1 (≈ 0.6 to 2.4 µM) |
| CCC1CCCCN1C(=O)Nc1ccccc1 (centres unmarked) [JC3c] | > 256 |
| CC1CCN(C(=O)Nc2cccc(Cl)c2)CC1 [JC1b] | > 256 |

Continued, values first:

| MIC [µg/mL] | Structure (SMILES) |
| --- | --- |
| 0.25 to 1 (≈ 0.606 to 2.42 µM) | COc1ccc(NC(=O)c2c(NC(=O)C(F)(F)F)sc3c2CCCCC3)cc1 [JR6] |
| 256 (≈ 937 µM) | O=C(Nc1cc(Cl)cc(Cl)c1)N1CCCCC1 [JC4] |
| 0.25 to 1 (≈ 0.631 to 2.52 µM) | Cc1ccc(NC(=O)c2c(NC(=O)C(F)(F)F)sc3c2CCCCC3)cc1 [JR5] |

Same assay, conditions: Staphylococcus aureus, UAMS1, 16 h, Table S1, mupirocin synergy screening initial hits; read-out: MIC

| Structure (SMILES) | MIC [µg/mL] |
| --- | --- |
| O=C(Nc1ccc(Cl)cc1)c1c(NC(=O)C(F)(F)F)sc2c1CCCCC2 [JR1] | 0.5 |

Same assay, conditions: Staphylococcus aureus, UAMS1, SAR figures; S. aureus UAMS-1; read-out: MIC

| Structure (SMILES) | MIC [µg/mL] |
| --- | --- |
| CC1CCCCN1C(=O)Nc1ccccc1 (centres unmarked) [JC2b] | > 256 |
| O=C(Nc1ccc(Cl)cc1)c1c(NC(=O)C(F)(F)F)sc2c1CCCCC2 [JR1] | 0.5 (≈ 1.2 µM) |
| CCC1CCCCN1C(=O)Nc1ccccc1 (centres unmarked) [JC3c] | > 256 |
| CC1CCN(C(=O)Nc2cccc(Cl)c2)CC1 [JC1b] | > 256 |

Other lines, results leading:

| MIC [µg/mL] | Structure (SMILES) |
| --- | --- |
| 1 (≈ 2.42 µM) | COc1ccc(NC(=O)c2c(NC(=O)C(F)(F)F)sc3c2CCCCC3)cc1 [JR6] |
| 256 (≈ 937 µM) | O=C(Nc1cc(Cl)cc(Cl)c1)N1CCCCC1 [JC4] |
| 0.25 (≈ 0.631 µM) | Cc1ccc(NC(=O)c2c(NC(=O)C(F)(F)F)sc3c2CCCCC3)cc1 [JR5] |

Each compound was assayed against T1, S. aureus RnpA (Staphylococcus aureus, UniProt P0A0H5) (assay: RnpA-mediated in vitro spa mRNA degradation assay). Details: SAR figures, read-out: dIC50 = degradation IC50.
T1 construct: hexahistidine (His6) (N); made in house; host or cells: E. coli BL21 (DE3), plasmid pEXP5-nt
T1 sequence (P0A0H5 1-117): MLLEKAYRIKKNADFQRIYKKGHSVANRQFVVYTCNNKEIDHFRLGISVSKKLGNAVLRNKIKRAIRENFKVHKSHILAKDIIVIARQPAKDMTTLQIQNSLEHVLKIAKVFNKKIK
Type: biochemical
Protocol: RnpA-mediated RNA degradation assays were performed as previously described. Briefly, 1 pmol of spa mRNA was incubated with 5 pmol RnpA at 37 °C for 30 min in reaction buffer (50 mM Tris-HCl pH 8.0, 2 mM NaCl, 2 mM MgCl2) in the absence or presence of the indicated compound (≤500 µM). The inhibitory effects of the test compounds were calculated using Biorad ImageLab densitometry software to measure the signal intensity of the spa band in the negative control (spa alone), positive control (RnpA + spa + DMSO), and experimental samples (RnpA + spa + test compound) separated on a 1.2% formaldehyde-agarose gel. Background signal from the positive control sample sometimes resulted due to incomplete degradation of transcripts. Thus, the signal intensity of the positive control was taken into account when calculating the percent inhibition. The raw signals from the positive (+RnpA) and negative (-RnpA) controls were converted into percentage, by normalizing the positive control (+RnpA) signal to 0% RnpA inhibition and the negative control (-RnpA) to 100% RnpA inhibition. Similarly, the raw signals from the test compounds were reported as percent RnpA inhibition using the following equation: [(experimental−positive control)/(negative control−positive control)] × 100. […] To assess IC50, % RnpA degradation inhibition was plotted against compound concentration; a linear best fit equation was generated and utilized to calculate the IC50.

| pIC50 | Structure (SMILES) |
| --- | --- |
| < 3.30 | CC1CCCCN1C(=O)Nc1ccccc1 (centres unmarked) [JC2b] |
| < 3.30 | CCC1CCCCN1C(=O)Nc1ccccc1 (centres unmarked) [JC3c] |
| 3.94 | Cc1ccc(NC(=O)c2c(NC(=O)C(F)(F)F)sc3c2CCCCC3)cc1 [JR5] |
| < 3.30 | CC1CCN(C(=O)Nc2cccc(Cl)c2)CC1 [JC1b] |

Same assay, conditions: read-out: Degradation IC50

| pIC50 | Structure (SMILES) |
| --- | --- |
| < 3.60 | COc1ccc(NC(=O)c2c(NC(=O)C(F)(F)F)sc3c2CCCCC3)cc1 [JR6] |
| < 3.30 | O=C(Nc1cc(Cl)cc(Cl)c1)N1CCCCC1 [JC4] |

| Structure (SMILES) | pIC50 |
| --- | --- |
| O=C(Nc1ccc(Cl)cc1)c1c(NC(=O)C(F)(F)F)sc2c1CCCCC2 [JR1] | 4.20 |

The compounds below were run on HepG2 cells (assay: MTT human cell cytotoxicity testing). Details: 4× MIC exposure for 24 h, MTT; listed as ST016037.
Type: cell-based
Protocol: Human HepG2 hepatocytes were seeded in individual wells of a 96-well cell-culture treated microtiter plate at a concentration of 1 × 10^5 cells per well and incubated in Dulbecco’s Modified Eagle Medium (DMEM) supplemented with 10% fetal bovine serum at 37 °C with 5% carbon dioxide overnight. Cells were then treated with DMSO (negative control) or the indicated agent for 24 h. MTT Cell Proliferation Assay Kits were used to assess viability according to the manufacturer’s recommendations (American Type Culture Collection; Manassas, VA, USA).

| Structure (SMILES) | % HepG2 Cell Survival [%] |
| --- | --- |
| O=C(Nc1ccc(Cl)cc1)c1c(NC(=O)C(F)(F)F)sc2c1CCCCC2 [JR1] | 81 |

Same assay, conditions: SAR figures; 4× MIC exposure for 24 h

| Structure (SMILES) | MTT = % HepG2 cell survival [%] |
| --- | --- |
| O=C(Nc1ccc(Cl)cc1)c1c(NC(=O)C(F)(F)F)sc2c1CCCCC2 [JR1] | 80.6 |
| COc1ccc(NC(=O)c2c(NC(=O)C(F)(F)F)sc3c2CCCCC3)cc1 [JR6] | 53.3 |
| O=C(Nc1cc(Cl)cc(Cl)c1)N1CCCCC1 [JC4] | 71.4 |
| Cc1ccc(NC(=O)c2c(NC(=O)C(F)(F)F)sc3c2CCCCC3)cc1 [JR5] | 82.8 |

What follows are compounds tested against T2, S. aureus RNase P (RnpA + rnpB) (Staphylococcus aureus, UniProt P0A0H5) (assay: RnpA-dependent RNase P in vitro ptRNA^Tyr processing assay). Details: SAR figures; in vitro ptRNA^Tyr processing; read-out: pIC50 = processing IC50 (converted).
T2 construct: hexahistidine (His6) (N); made in house; host or cells: E. coli BL21 (DE3), plasmid pEXP5-nt
T2 sequence (P0A0H5 1-117): T1 sequence (P0A0H5 1-117)
Type: biochemical
Protocol: S. aureus RNase P activity assays were performed according to conditions described previously. Briefly, ptRNA^Tyr and rnpB RNA species were first denatured by heating to 95 °C for 5 min then slow cooled to room temperature. RNase P was reconstituted by mixing an equal molar ratio of rnpB and RnpA for 15 min at 37 °C. Precursor tRNA processing inhibition reactions were performed by mixing 1.25 pmol of reconstituted RNase P (RnpA + rnpB) with an equal volume of 2× low salt buffer (50 mM Tris-HCl pH 8.0, 5 mM MgCl2) in the presence of DMSO (negative control) or the indicated compound (≤500 µM) and incubated for 5 min at 37 °C. 5 pmol ptRNA^Tyr was added and the mixture was incubated at 37 °C 15 min. Reactions were stopped by adding 2× RNA loading dye and heating at 65 °C for 10 min. Each sample was electrophoresed in a 7 M urea/8% polyacrylamide gel then stained with ethidium bromide. The Biorad EZ Gel Doc imaging system was used to visualize the RNA and relative abundance of the mature tRNA^Tyr band (% processing) in the negative control or in samples containing the indicated compounds and analyzed using Biorad Image Lab densitometry software. The inhibitory activity of the indicated compounds were calculated as a % inhibition using the following equation: […].
To assess IC50, % RNase P processing inhibition was plotted against compound concentration and a linear best fit equation was generated to calculate the IC50.

| Structure (SMILES) | IC50 [µM] |
| --- | --- |
| CC1CCCCN1C(=O)Nc1ccccc1 (centres unmarked) [JC2b] | > 500 |
| CCC1CCCCN1C(=O)Nc1ccccc1 (centres unmarked) [JC3c] | > 500 |
| CC1CCN(C(=O)Nc2cccc(Cl)c2)CC1 [JC1b] | > 500 |

The next lines start with the values.

| IC50 [µM] | Structure (SMILES) |
| --- | --- |
| 22 | COc1ccc(NC(=O)c2c(NC(=O)C(F)(F)F)sc3c2CCCCC3)cc1 [JR6] |
| 300 | O=C(Nc1cc(Cl)cc(Cl)c1)N1CCCCC1 [JC4] |
| 80 | Cc1ccc(NC(=O)c2c(NC(=O)C(F)(F)F)sc3c2CCCCC3)cc1 [JR5] |

Same assay, conditions: in vitro ptRNA^Tyr processing; read-out: Processing IC50

| Structure (SMILES) | pIC50 |
| --- | --- |
| O=C(Nc1ccc(Cl)cc1)c1c(NC(=O)C(F)(F)F)sc2c1CCCCC2 [JR1] | 4.92 |

Reference: PMC6627331, “Identification of Small Molecule Inhibitors of Staphylococcus aureus RnpA” (Antibiotics, 2019)
